Patent US20240130988A1, “Use of stilbene compounds in the preparation of anti-tumor drugs” (Guangzhou AnHao Pharmaceutical Technology CO., LTD., priority 2022, published 2024)
Like-named read-outs stand apart in the source and are kept apart here. Values belong to the molecule of their own block, whether it stands above or below them.

Columns and labels:
[1] = tested on: human liver cancer QGY7703; experiment: Human liver cancer QGY7703 transplanted tumor in nude mice; assay type: in vivo, BALB/C nude mice; set-up: key to RTV (d 18): RTV = Vt/Vo, tumor volume relative to volume at grouping (d1); settings: for inhibition in vivo at 100 mg/kg: Mus musculus, read-out: Tumor inhibitory rate %
Procedure: A human liver cancer QGY7703 model transplanted into nude mice was used in the experiment to investigate the anti-tumor effect of test compounds. The mice were intravenously injected at a dosage of 100 mg/kg for 14 days, and the tumor inhibition rate against human liver cancer QGY7703 was measured.
Preparation: The compound was prepared as the injection at the desired concentration with sterile normal saline, prior to administration.
Animal strain: BALB/C nude mice (SPF grade), weight: 19-21 g, gender: male. Number of animals in each treatment group: 8; number of animals in the control group: >12.
The tumor blocks of human liver cancer QGY7703 with good growth were cut into uniform small pieces of 3 mm under sterile conditions, and then subcutaneously inoculated into the right armpit of each mouse with a cannula. These mice were divided into 9 groups, 8 mice for each treatment group, while more than 12 mice were included in the control group.
14 days after inoculation, the average volume of the tumor block was about 100 mm^3. The animals were regrouped based on the size of the tumor, and the animals with tumors that were too large and too small were sifted out. For each group, the average volume of tumors was basically the same, and then the mice were initially treated with test compounds. The mice in the treatment groups were intravenously injected once a day for 14 days, at a dosage of 0.1 mL/20 g body weight; the mice in the control group were given the same volume of sterile normal saline. From the 14th day of inoculation, the long diameter a (mm) of the tumor, together with the perpendicular short diameter b (mm), was measured using a digital electronic caliper, twice a week. The calculation formula of tumor volume is: TV=ab^2/2, and the formula for calculating the relative tumor volume is RTV=Vt/Vo, wherein Vo denotes the tumor volume measured when the mice were divided into groups (i.e. d1), and Vt is the tumor volume from each measurement.
The result determination is based on the following formula: […]

[2] = tested on: ocular surface neovascularization; experiment: Neovascularization of ocular surface in rats (NaOH cornea model); assay type: in vivo, SD rats; settings: 50 μL/eye, 3 times/day, 10 days
Procedure: Four SD rats, regardless of gender, were subjected to single eye modeling, with a total of four eye models. One eye was used as a blank control (untreated group), one eye was used as a model control, one eye was used as treatment group 1, and one eye was used as treatment group 2.
The rats were anesthetized with pentobarbital sodium (25-30 mg/(kg, intraperitoneal injection), and two drops of oxybuprocaine hydrochloride eye drops were administrated to both eyes for ocular surface anesthesia. 30 μL of NaOH solution (1 mol/L) was placed with a pipette on a dry filter paper with a diameter of approximate 3 mm for 10 seconds. The moistened circular filter paper was gently applied to the center of the cornea (covering the corneoscleral margin) of the model eye, and a tight fit was kept for suitable time. The filter paper was removed, and then physiological saline was used to wash the eye, which was rinsed with a needle for 1 minute. After operation, ofloxacin eye ointment was applied to prevent infection (3 times/day, for 5 days).
On the 5th day (D5), neovascularization began to appear, and D5 was the first day of administrating the test compound (d1). Three eye drops were administered daily for 10 consecutive days (d10). […] After completion of the experiment, the rats were euthanized.
Blank control group (untreated group): no any treatment, no modeling, no administration. […]

B16 mouse melanoma = experiment: Lung metastasis model of B16 mouse melanoma; assay type: in vivo, C57BL/6 mice
Procedure: Under sterile conditions, […] mouse melanoma cells in logarithmic growth period were cultured, and then prepared as 2.8×10^5/mL of cell suspension, which was inoculated into the tail vein of C57BL/6 mice at 0.2 mL/mouse. Compound 6 was administered to the mice on the next day. Three weeks later, each animal was sacrificed, and the lungs of mice in each group were dissected. The number of metastatic colonies in the lungs of mice was detected and counted, and the average number of tumor colonies in each group was used to calculate the tumor inhibitory rate according to the formula: Tumor inhibitory rate %=[(The average number of colonies in the control group−the average number of colonies in the treatment group)/The average number of colonies in the control group]×100%, The results are shown in Table 16.

[3] = tested on: human lung cancer 95D and human liver cancer Bel7404; experiment: Tumor necrosis in vivo, HE staining; set-up: species or system nude mice; settings: 400 mg/kg
Procedure: Well growing solid tumors (human lung cancer […]) and human liver cancer Bel7404) were cut into uniform small pieces of approximate 2-3 mm under sterile conditions, and subcutaneously inoculated into the right armpit of each nude mouse using a cannula. 14 days after inoculation, each mouse was treated with compound 6 by oral administration at a dosage of 400 mg/kg (in a dosage by volume of 0.5 mL/20 g body weight), and compound 6 was prepared as a suitable solution with sterile normal saline. At different time points (4 h, 24 h) after administration, the nude mice were killed, and the tumor tissue was dissected and fixed with 10% formalin. The pathological sections were made, followed by HE staining and taking photos, to observe the internal necrosis and cell proliferation within the tumors.

[4] = QGY-7703, QGY7703, 100 mg/kg iv × 14

SMILES: COc1cc(/C=C(/C(=O)O)c2cc(OC)c(OC)c(OC)c2)cc(OC)c1 [Compound 3, (E)-3-(3,5-dimethoxyphenyl)-2-(3,4,5-trimethoxyphenyl)acrylic acid]
- inhibition in vivo at 100 mg/kg ([1]; QGY-7703, iv): 63.7%
- RTV (d 18) ([1]; QGY7703, 100 mg/kg iv × 14): 4.67 ± 0.63

SMILES: COc1ccc(/C=C(/C(=O)O)c2cc(OC)c(OC)c(OC)c2)cc1F [Compound 4, (E)-3-(3-fluoro-4-methoxyphenyl)-2-(3,4,5-trimethoxyphenyl)acrylic acid]
- inhibition in vivo at 100 mg/kg ([1]; QGY-7703, iv): 60.3%
- RTV (d 18) ([1]; QGY7703, 100 mg/kg iv × 14): 5.11 ± 0.76

- Animal weight (g) End (B16 mouse melanoma; 40 mg/kg iv × 10qod): 20.2/25.4 g
- Animal weight (g) End (B16 mouse melanoma; 60 mg/kg iv × 10qod): 20.1/25.7 g
- Animal weight (g) End (B16 mouse melanoma; 80 mg/kg iv × 10qod): 19.9/25.7 g
- Animal weight (g) End (B16 mouse melanoma; 120 mg/kg iv × 10qod): 20.2/25.6 g
SMILES: COc1ccc(/C=C(/C(=O)O)c2cc(OC)c(OC)c(OC)c2)cc1O [Compound 6, (E)-3-(3-hydroxy-4-methoxyphenyl)-2-(3,4,5-trimethoxyphenyl)acrylic acid]
- Vascularization area ([2]; high-dose group, eye drops 25 mg/mL): significantly decreased
- Neovascularization of the ocular surface ([2]; treatment groups, eye drops 10 or 25 mg/mL, vs model group): reduced compared to the model group
- Metastasis inhibitory rate % (B16 mouse melanoma; 40 mg/kg iv × 10qod): 24.11%
- Number of lung tumor colonies χ ± SD (B16 mouse melanoma; 40 mg/kg iv × 10qod): 40.1 ± 9.0
- Metastasis inhibitory rate % (B16 mouse melanoma; 60 mg/kg iv × 10qod): 29.03%
- Number of lung tumor colonies χ ± SD (B16 mouse melanoma; 60 mg/kg iv × 10qod): 37.5 ± 11.7
- Metastasis inhibitory rate % (B16 mouse melanoma; 80 mg/kg iv × 10qod): 35.84%
- Number of lung tumor colonies χ ± SD (B16 mouse melanoma; 80 mg/kg iv × 10qod): 33.9 ± 10.8
- Metastasis inhibitory rate % (B16 mouse melanoma; 120 mg/kg iv × 10qod): 34.14%
- Number of lung tumor colonies χ ± SD (B16 mouse melanoma; 120 mg/kg iv × 10qod): 34.8 ± 13.4
- Inhibition of metastasis of B16 mouse melanoma, in words (B16 mouse melanoma; 40-120 mg/kg iv × 10qod): inhibit the metastasis of B16 mouse melanoma in a dose-dependent manner
- Internal necrosis within the tumors (HE staining) ([3]; 4 h after oral administration): necrosis began to appear within the tumor tissues
- Internal necrosis within the tumors (HE staining) ([3]; 24 h after oral administration): massive necrosis
- inhibition in vivo at 100 mg/kg [1, 4]: 71.6%
- RTV (d 18) ([1]; QGY7703, 100 mg/kg iv × 14): 3.65 ± 0.47
- Tumor inhibitory rate % ([1]; QGY7703, 100 mg/kg iv × 14): best inhibitory effect on liver cancer

SMILES: COc1ccc(/C=C(/C(=O)O)c2cc(OC)c(OC)c(OC)c2)c(F)c1O [Compound 9, (E)-3-(2-fluoro-3-hydroxy-4-methoxyphenyl)-2-(3,4,5-trimethoxyphenyl)acrylic acid]
- inhibition in vivo at 100 mg/kg [1, 4]: 63.7%
- RTV (d 18) ([1]; QGY7703, 100 mg/kg iv × 14): 4.67 ± 0.58

SMILES: COc1cc(/C=C(/C(=O)[O-])c2cc(OC)c(OC)c(OC)c2)cc(OC)c1F.[K+] [Compound 10]
- inhibition in vivo at 100 mg/kg ([1]; QGY-7703, iv): 61.3%
- RTV (d 18) ([1]; QGY7703, 100 mg/kg iv × 14): 4.98 ± 0.72
